Data on three compounds can be found in ChEMBL document CHEMBL1133308, “A novel inhibitor of human telomerase derived from 10H-indolo[3,2-b]quinoline” (Bioorg Med Chem Lett, 2000).

By IC50 is commonly meant the concentration that gives 50% inhibition. Higher therefore signals weaker potency.

Assay [1] is described as follows: Compound was evaluated for cytotoxicity against human ovarian cancer cell SKOV-3. It counts as functional, cell-based. The conditions noted are these: Cancer cell lines.
Assay [2] in a line: Compound was evaluated for cytotoxicity against human ovarian cancer cell A2780. Type of assay: functional, cell-based. The conditions noted are these: Cancer cell lines.
In assay [3] the target is Telomerase reverse transcriptase (Homo sapiens, UniProt O14746). Nature of the assay: Inhibitory activity against human ovarian cancer cell (A2780 cells) Telomerase. It counts as cell-based.
A short description of assay [4]: Compound was evaluated for cytotoxicity against human ovarian cancer cell CHI R. Type of assay: functional, cell-based. As to conditions: Cancer cell lines.
The nature of assay [5]: Compound was evaluated for cytotoxicity against human ovarian cancer cell A2780R. Type of assay: functional, cell-based. As to conditions: Cancer cell lines.
Assay [6] in a line: Compound was evaluated for cytotoxicity against human ovarian cancer cell CHI. The conditions noted are these: Cancer cell lines. Type of assay: functional, cell-based.

Chain of Telomerase reverse transcriptase (O14746 whole entry): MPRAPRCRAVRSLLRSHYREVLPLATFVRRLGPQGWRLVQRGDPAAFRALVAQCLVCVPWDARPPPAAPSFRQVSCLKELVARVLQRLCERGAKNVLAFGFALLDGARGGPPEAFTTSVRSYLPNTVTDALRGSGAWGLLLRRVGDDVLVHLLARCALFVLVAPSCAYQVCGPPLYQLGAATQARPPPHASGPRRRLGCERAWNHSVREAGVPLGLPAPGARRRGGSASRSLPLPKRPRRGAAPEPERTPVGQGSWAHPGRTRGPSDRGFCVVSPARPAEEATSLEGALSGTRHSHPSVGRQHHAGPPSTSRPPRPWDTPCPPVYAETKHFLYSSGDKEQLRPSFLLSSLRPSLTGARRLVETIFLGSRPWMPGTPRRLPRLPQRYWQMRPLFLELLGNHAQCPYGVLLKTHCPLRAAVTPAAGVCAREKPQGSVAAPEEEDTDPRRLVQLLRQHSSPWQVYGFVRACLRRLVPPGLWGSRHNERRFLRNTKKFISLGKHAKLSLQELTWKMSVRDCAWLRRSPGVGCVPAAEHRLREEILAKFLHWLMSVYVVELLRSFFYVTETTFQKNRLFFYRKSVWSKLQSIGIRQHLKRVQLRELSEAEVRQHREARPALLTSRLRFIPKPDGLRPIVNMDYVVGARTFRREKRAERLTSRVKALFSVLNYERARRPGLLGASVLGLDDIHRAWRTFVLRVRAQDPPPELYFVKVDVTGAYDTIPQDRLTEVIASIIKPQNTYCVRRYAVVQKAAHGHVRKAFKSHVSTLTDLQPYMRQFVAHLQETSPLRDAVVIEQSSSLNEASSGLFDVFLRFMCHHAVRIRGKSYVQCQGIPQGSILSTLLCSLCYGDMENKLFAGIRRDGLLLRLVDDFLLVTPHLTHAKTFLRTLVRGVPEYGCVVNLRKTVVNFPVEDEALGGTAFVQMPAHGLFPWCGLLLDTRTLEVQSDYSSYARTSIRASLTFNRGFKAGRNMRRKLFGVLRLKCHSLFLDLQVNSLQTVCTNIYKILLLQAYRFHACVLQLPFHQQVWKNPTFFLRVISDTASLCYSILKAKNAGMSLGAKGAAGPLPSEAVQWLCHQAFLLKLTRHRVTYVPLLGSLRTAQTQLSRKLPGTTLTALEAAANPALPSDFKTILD

With `CN(C)CCc1ccc2nc3c4ccccc4n(CCN(C)C)c3cc2c1`, the IC50 in assay [1] stood at 6.3 µM; in assay [2], 12.5 µM; in assay [3], 16 µM; in assay [4], 12.5 µM; in assay [5], 10.5 µM; in assay [6] it was 8.4 µM.
`CCN(CC)CCOc1ccc2c(c1)OC1C(=O)c3ccccc3C(=O)C21` (stereo not given): the IC50 in assay [1] is 3.6 µM; in assay [2] it was 0.15 µM; in assay [3], 7 µM; in assay [6], 0.18 µM.
On to `c1ccc2nc3c(cc2c1)[nH]c1ccccc13` [QUINDOLINE], for which the IC50 in assay [1] came out at 66 µM; in assay [2], 21.5 µM; in assay [4], 30 µM; in assay [5] it was 24.5 µM; in assay [6], 15.5 µM.
